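Values below derive from 48-hour exposures of cells grown in 96-well plates, with endpoints linearly interpolated between the two concentrations bracketing the appropriate inhibition level. TGI: total growth inhibition.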

This note sets out measurements from PubChem BioAssay (NCI).

Test systems include 786-0 renal; A549 NSCLC; COLO 205 colon; DU-145 prostate; EKVX NSCLC; HOP-92 NSCLC; HT29 colon; IGROV1 ovarian; MOLT-4 leukemia; NCI-H23 lung; NCI-H460 lung; OVCAR-3 ovarian; OVCAR-5 ovarian; OVCAR-8 ovarian; SNB-75 CNS; SW-620 colon; UACC-257 melanoma; A498 renal; NCI-H226 lung; SK-MEL-2 melanoma.
What all share (experiment): NCI tumour cell line growth inhibition, 48 h

Consider `CN1C(=O)C(c2c[nH]c3ccccc23)N(C)C(=O)C1c1c[nH]c2ccccc12` (stereo unspecified), for which the TGI with 786-0 renal, in the test with A549 NSCLC, in the test with COLO 205 colon, in the test on DU-145 prostate, in the test on EKVX NSCLC and in the test with HOP-92 NSCLC was above 100 µM in each case. The TGI in the test with HT29 colon, in the test with IGROV1 ovarian, in the test with MOLT-4 leukemia, with NCI-H23 lung, in the test with NCI-H460 lung and in the test on OVCAR-3 ovarian was above 100 µM each time. For the same compound, the TGI is above 100 µM in the test on OVCAR-5 ovarian; above 100 µM with OVCAR-8 ovarian; 88.2 µM in the test with SNB-75 CNS; above 100 µM with SW-620 colon; above 100 µM with UACC-257 melanoma.
Regarding `CC(=O)N1C(NN(C)C)CCN1c1ccccc1` (stereo unspecified), the TGI in the test on 786-0 renal, in the test on A549 NSCLC, in the test with COLO 205 colon, in the test on DU-145 prostate, in the test with EKVX NSCLC and in the test with HOP-92 NSCLC was above 10 µM each time. In addition, the TGI in the test with HT29 colon, with IGROV1 ovarian, with MOLT-4 leukemia, in the test on NCI-H23 lung, with OVCAR-8 ovarian and with SNB-75 CNS was above 10 µM in each case. In addition, the TGI in the test with SW-620 colon and with UACC-257 melanoma was above 10 µM throughout.
As to `CC(=O)C(CN(Cc1ccccc1)Cc1ccccc1)C(c1ccccc1)c1c(O)c2ccccc2oc1=O` (stereo unspecified), the TGI in the test with 786-0 renal, in the test with A498 renal, with A549 NSCLC, with EKVX NSCLC, with HOP-92 NSCLC and in the test with HT29 colon was above 100 µM throughout. Besides, the TGI in the test on IGROV1 ovarian, in the test with NCI-H226 lung, with NCI-H23 lung, in the test on NCI-H460 lung, in the test with OVCAR-3 ovarian and with OVCAR-5 ovarian was above 100 µM in each case. Moreover, the TGI in the test on OVCAR-8 ovarian, in the test on SK-MEL-2 melanoma, in the test on SNB-75 CNS, in the test on SW-620 colon and with UACC-257 melanoma was above 100 µM in each case.
Take `NC(CCC(=O)NC(CSC(=O)N(O)c1ccccc1)C(=O)NCC(=O)O)C(=O)O` (stereo unspecified): the TGI with 786-0 renal, in the test on A498 renal, with A549 NSCLC, in the test with COLO 205 colon, in the test on EKVX NSCLC and with HOP-92 NSCLC was above 1000 µM throughout. Moreover, the TGI in the test with HT29 colon, with IGROV1 ovarian, in the test on MOLT-4 leukemia, with NCI-H226 lung, in the test with NCI-H23 lung and in the test on NCI-H460 lung was above 1000 µM each time. The TGI with OVCAR-3 ovarian, with OVCAR-5 ovarian, in the test with OVCAR-8 ovarian, in the test on SK-MEL-2 melanoma, with SNB-75 CNS and with SW-620 colon was above 1000 µM each time. The same compound showed a TGI in the test on UACC-257 melanoma above 1000 µM.
`COC(=O)NN=C1C(C)(C)C(=O)C1(C)C`: the TGI in the test with 786-0 renal, in the test with A498 renal, in the test on A549 NSCLC, with COLO 205 colon, in the test on EKVX NSCLC and in the test on HOP-92 NSCLC was above 100 µM in each case. In addition, the TGI in the test on HT29 colon, with IGROV1 ovarian, in the test with MOLT-4 leukemia, with NCI-H226 lung, with NCI-H23 lung and in the test with NCI-H460 lung was above 100 µM throughout. The TGI with OVCAR-3 ovarian, with OVCAR-5 ovarian, in the test on OVCAR-8 ovarian, in the test on SK-MEL-2 melanoma, with SNB-75 CNS and with SW-620 colon was above 100 µM each time. Further, the TGI with UACC-257 melanoma was above 100 µM.
With `O=c1nc(NC(c2ccccc2)(c2ccccc2)c2ccccc2)ccn1CCNCCn1ccc(NC(c2ccccc2)(c2ccccc2)c2ccccc2)nc1=O`, the TGI in the test on 786-0 renal was 31.5 µM; in the test on A498 renal it was 78 µM; with A549 NSCLC, above 100 µM; with COLO 205 colon, 35.6 µM; in the test with EKVX NSCLC, 63.6 µM; in the test with HOP-92 NSCLC, 24.4 µM. Further, the TGI was found to be 24.5 µM in the test with HT29 colon; 56.2 µM in the test with IGROV1 ovarian; 34.7 µM in the test on NCI-H226 lung; 26.8 µM in the test on NCI-H23 lung; 33.8 µM with NCI-H460 lung; 58.3 µM in the test on OVCAR-3 ovarian. The TGI in the test on OVCAR-5 ovarian is above 100 µM; in the test with OVCAR-8 ovarian, 38.7 µM; in the test with SK-MEL-2 melanoma, 9.32 µM; with SNB-75 CNS, above 100 µM; in the test with SW-620 colon, 31.9 µM; in the test on UACC-257 melanoma it was 23.3 µM.
In the case of `NC(=O)C1Cc2cc3c(cc21)OCO3` (stereo unspecified), the TGI in the test on 786-0 renal, with A549 NSCLC, in the test with COLO 205 colon, in the test with DU-145 prostate, with EKVX NSCLC and in the test on HT29 colon was above 100 µM in each case. Moreover, the TGI in the test with IGROV1 ovarian, in the test on NCI-H226 lung, in the test with NCI-H23 lung, in the test with NCI-H460 lung, in the test with OVCAR-3 ovarian and in the test with OVCAR-5 ovarian was above 100 µM each time. For the same compound, the TGI in the test with OVCAR-8 ovarian, in the test on SNB-75 CNS and with UACC-257 melanoma was above 100 µM in each case.
As to `CC(=O)N(C(C)=O)n1c(-c2ccccc2)n[nH]c1=O`, the TGI in the test on 786-0 renal, in the test on A549 NSCLC, in the test with COLO 205 colon, in the test with DU-145 prostate, in the test on EKVX NSCLC and with HOP-92 NSCLC was above 100 µM throughout. The TGI in the test on HT29 colon, in the test on IGROV1 ovarian, with MOLT-4 leukemia, in the test on NCI-H23 lung, in the test with OVCAR-3 ovarian and with OVCAR-5 ovarian was above 100 µM throughout. The TGI with OVCAR-8 ovarian, in the test with SK-MEL-2 melanoma, with SNB-75 CNS, in the test with SW-620 colon and with UACC-257 melanoma was above 100 µM each time.
